{"source": "ChEMBL document CHEMBL1141234", "about": "“Synthesis and SAR of highly potent dual 5-HT1A and 5-HT1B antagonists as potential antidepressant drugs” (Bioorg Med Chem Lett, 2005)", "key": {"[1]": {"biological_target": "5-hydroxytryptamine receptor 7 (Homo sapiens, UniProt P34969)", "sequence (P34969 whole entry)": "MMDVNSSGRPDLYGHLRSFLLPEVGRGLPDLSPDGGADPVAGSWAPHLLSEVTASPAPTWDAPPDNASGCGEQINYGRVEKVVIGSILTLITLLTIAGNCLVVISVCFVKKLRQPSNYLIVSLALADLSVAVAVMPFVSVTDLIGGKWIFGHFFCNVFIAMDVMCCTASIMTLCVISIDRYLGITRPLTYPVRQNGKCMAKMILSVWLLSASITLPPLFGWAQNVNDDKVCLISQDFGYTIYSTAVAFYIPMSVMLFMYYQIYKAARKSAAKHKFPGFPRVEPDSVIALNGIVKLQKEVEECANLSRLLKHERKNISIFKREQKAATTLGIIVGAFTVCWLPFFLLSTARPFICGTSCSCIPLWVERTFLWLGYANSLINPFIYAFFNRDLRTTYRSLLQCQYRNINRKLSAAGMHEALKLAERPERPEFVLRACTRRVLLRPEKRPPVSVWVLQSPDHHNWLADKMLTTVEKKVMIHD", "experiment": "Inhibitory activity against 5HT7 receptor"}, "[2]": {"biological_target": "T1, 5-hydroxytryptamine receptor 2C (Homo sapiens, UniProt P28335)", "T1 sequence (P28335 whole entry)": "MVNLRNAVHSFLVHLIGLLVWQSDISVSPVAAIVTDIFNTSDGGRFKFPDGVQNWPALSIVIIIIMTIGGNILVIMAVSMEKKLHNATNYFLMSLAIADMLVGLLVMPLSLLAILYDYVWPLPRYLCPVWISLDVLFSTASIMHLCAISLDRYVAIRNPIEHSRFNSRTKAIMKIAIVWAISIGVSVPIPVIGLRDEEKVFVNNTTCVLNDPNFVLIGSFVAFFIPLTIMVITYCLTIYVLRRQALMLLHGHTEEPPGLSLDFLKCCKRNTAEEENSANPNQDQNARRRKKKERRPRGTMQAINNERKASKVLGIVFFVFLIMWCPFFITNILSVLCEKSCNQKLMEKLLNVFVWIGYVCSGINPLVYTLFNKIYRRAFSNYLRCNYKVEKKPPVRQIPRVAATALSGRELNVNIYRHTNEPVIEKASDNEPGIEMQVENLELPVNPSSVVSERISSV", "experiment": "Inhibitory activity against 5HT2C receptor"}, "[3]": {"biological_target": "T2, 5-hydroxytryptamine receptor 1A (Homo sapiens) (UniProt P08908)", "T2 sequence (whole entry)": "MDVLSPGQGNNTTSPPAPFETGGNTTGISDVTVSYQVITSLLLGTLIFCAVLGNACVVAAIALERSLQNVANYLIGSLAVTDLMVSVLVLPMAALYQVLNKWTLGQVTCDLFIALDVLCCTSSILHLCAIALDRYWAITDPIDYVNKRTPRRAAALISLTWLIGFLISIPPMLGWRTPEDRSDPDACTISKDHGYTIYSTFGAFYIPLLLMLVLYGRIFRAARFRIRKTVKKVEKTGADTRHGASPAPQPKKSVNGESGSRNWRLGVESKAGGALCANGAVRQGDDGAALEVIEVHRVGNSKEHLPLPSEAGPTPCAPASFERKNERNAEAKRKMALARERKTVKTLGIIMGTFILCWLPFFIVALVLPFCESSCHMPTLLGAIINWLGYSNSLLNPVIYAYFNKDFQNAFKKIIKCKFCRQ", "experiment": "Intrinsic activity for 5HT1A receptor in [35S]GTP-gamma-S assay", "format": "functional"}, "[4]": {"biological_target": "T3, 5-hydroxytryptamine receptor 1A (Homo sapiens, UniProt P08908)", "T3 sequence (P08908 whole entry)": "T2 sequence (whole entry)", "experiment": "Displacement of [35S]GTP-gamma-S from human recombinant 5HT1A receptor", "format": "functional"}, "D(3) dopamine receptor": {"biological_target": "D(3) dopamine receptor (Homo sapiens, UniProt P35462)", "sequence (P35462 whole entry)": "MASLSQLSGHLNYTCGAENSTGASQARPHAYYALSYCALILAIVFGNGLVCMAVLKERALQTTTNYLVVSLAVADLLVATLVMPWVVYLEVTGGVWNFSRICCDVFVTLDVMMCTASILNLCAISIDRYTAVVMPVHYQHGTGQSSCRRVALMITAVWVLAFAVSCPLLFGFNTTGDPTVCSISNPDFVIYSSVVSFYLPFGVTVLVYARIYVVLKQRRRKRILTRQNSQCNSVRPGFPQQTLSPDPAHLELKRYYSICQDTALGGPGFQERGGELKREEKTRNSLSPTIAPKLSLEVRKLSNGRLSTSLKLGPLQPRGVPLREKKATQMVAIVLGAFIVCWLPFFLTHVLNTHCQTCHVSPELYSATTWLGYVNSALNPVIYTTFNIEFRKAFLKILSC", "experiment": "Inhibitory activity against dopamine D3 receptor"}, "Rattus norvegicus": {"species": "Rattus norvegicus", "experiment": "Electrically stimulated [3H]5-HT release from rat brain cortical slices at 1 uM", "format": "functional, tissue-based"}, "[5]": {"biological_target": "Sodium-dependent dopamine transporter (Homo sapiens) (UniProt Q01959)", "sequence (Q01959 whole entry)": "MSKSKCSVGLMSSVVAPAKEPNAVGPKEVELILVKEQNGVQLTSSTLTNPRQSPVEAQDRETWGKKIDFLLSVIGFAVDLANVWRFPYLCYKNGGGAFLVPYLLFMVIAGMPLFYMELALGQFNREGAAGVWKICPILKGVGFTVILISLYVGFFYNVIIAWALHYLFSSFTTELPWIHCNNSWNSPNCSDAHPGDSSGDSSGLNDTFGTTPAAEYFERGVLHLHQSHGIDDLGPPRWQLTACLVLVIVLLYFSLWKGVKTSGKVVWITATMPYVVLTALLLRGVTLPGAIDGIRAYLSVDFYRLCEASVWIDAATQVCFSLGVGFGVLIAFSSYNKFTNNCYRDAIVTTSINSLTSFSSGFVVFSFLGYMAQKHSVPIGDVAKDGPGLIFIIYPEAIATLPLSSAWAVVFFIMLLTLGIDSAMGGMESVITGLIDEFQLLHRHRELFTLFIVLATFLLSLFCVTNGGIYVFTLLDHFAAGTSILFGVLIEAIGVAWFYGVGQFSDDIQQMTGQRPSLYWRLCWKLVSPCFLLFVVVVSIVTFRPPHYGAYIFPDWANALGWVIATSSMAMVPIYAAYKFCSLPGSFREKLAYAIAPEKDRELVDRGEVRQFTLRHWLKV", "experiment": "Inhibitory activity against DAT upto 10 uM"}}, "note": "Activity calls are given as the source filed them. The rule behind the calls is not given here."}
{"smiles": "CN1CCc2c(sc3ncn(CCN4CCN(c5cncc6ccccc56)CC4)c(=O)c23)C1", "values": [{"measurement": "Ki", "setting": "[1]", "value": 520, "unit": "nM"}, {"measurement": "Ki", "setting": "[2]", "value": "> 10000", "unit": "nM"}, {"measurement": "Emax", "setting": "[3]", "value": 4, "unit": "%"}, {"measurement": "IC50", "setting": "[4]", "value": 316, "unit": "nM"}, {"measurement": "Ki", "setting": "[4]", "value": 4.7, "unit": "nM"}, {"measurement": "Ki", "setting": "D(3) dopamine receptor", "value": 1.18, "unit": "nM"}, {"measurement": "Activity", "setting": "Rattus norvegicus", "value": "Dose-dependent effect"}, {"measurement": "Activity", "setting": "[5]", "value": "inactive"}]}
